Laboratory results from US7812053B2, “4-((phenoxyalkyl)thio)-phenoxyacetic acids and analogs” (Janssen Pharmaceuticals NV, priority 2004, dated 2010).
Where “and” joins values, the source holds several entries; their conditions need not be identical. Equal entries are not always repeated.

Legend:
[1] = target: T1, PPARδ ligand binding domain fused to the yeast GAL4 DNA binding domain (Homo sapiens, UniProt Q03181); assay: Transfection assay for PPAR receptors (GAL4-LBD luciferase reporter), PPAR delta; type: cell-based; settings: HEK293 cells, GAL4 (UAS) luciferase reporter, 18-24 hrs; multiple values = multiple measurements
T1 construct: expressed in transfected cells; host or cells: HEK293
T1 sequence (Q03181 211-439 limits assumed): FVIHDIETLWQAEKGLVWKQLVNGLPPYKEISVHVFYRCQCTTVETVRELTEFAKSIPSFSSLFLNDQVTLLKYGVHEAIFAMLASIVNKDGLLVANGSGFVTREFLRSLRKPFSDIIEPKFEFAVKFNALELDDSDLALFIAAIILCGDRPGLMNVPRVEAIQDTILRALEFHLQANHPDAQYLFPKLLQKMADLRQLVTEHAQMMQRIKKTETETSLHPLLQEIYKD
Experimental: (§1) Transfection Assay Method for PPAR Receptors
(§2) HEK293 cells were grown in DMEM/F12 medium supplemented with 10% FBS and glutamine (Invitrogen) and incubated in a 5% CO2 incubator at 37° C. The cells were co-transfected using DMRIE-C reagent (Invitrogen) in serum free medium (Opti-MEM, Invitrogen) with two mammalian expression plasmids, one containing the DNA sequence coding for the ligand binding domains of either PPARα, γ or δ fused to the yeast GAL4 DNA binding domain and the other containing the promoter sequence of the yeast GAL4 (UAS) fused to the firefly luciferase cDNA reporter. The next day, the medium was changed to DMEM/F12 medium supplemented with 5% charcoal treated serum (Hyclone) and glutamine. After 6 hrs the cells were trypsinized and seeded at a density of 50,000 cells/well into 96 well plates and incubated overnight as above. The cells were then treated with test compounds or vehicle and incubated for 18-24 hrs as above. Luciferase reporter activity was measured using the Steady-Glo Luciferase Assay Kit from Promega. DMRIE-C Reagent was purchased from GIBCO Cat. No. 10459-014. OPTI-MEM I Reduced Serum Medium was purchased from GIBCO (Cat. No. 31985). Steady-Glo Luciferase Assay Kit was purchased from Promega (Part# E254B).
(§3) A variety of example compounds have been made and tested, with a range of in vitro results. Below are representative compounds and data; in some cases, where multiple EC50's are shown, multiple measurements were taken. Naturally, different compounds in Formula (I) may have not have activities identical to any one compound below.

[2] = target: T2, PPARα ligand binding domain fused to the yeast GAL4 DNA binding domain (Homo sapiens, UniProt Q07869); assay: Transfection assay for PPAR receptors (GAL4-LBD luciferase reporter), PPAR alpha; type: cell-based; settings: HEK293 cells, GAL4 (UAS) luciferase reporter, 18-24 hrs
T2 construct: expressed in transfected cells; host or cells: HEK293
T2 sequence (Q07869 239-466 limits assumed): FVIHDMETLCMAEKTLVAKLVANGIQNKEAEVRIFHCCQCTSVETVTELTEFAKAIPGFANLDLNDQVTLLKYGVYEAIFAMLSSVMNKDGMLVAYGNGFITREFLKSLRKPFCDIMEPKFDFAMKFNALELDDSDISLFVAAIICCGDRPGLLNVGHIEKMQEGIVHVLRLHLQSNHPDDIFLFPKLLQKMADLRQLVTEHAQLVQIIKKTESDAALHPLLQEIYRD
Experimental: as §1, §2, §3

[3] = target: T3, PPARγ ligand binding domain fused to the yeast GAL4 DNA binding domain (Homo sapiens, UniProt P37231); assay: Transfection assay for PPAR receptors (GAL4-LBD luciferase reporter), PPAR gamma; type: cell-based; settings: HEK293 cells, GAL4 (UAS) luciferase reporter, 18-24 hrs
T3 construct: expressed in transfected cells; host or cells: HEK293
T3 sequence (P37231 238-503 limits assumed): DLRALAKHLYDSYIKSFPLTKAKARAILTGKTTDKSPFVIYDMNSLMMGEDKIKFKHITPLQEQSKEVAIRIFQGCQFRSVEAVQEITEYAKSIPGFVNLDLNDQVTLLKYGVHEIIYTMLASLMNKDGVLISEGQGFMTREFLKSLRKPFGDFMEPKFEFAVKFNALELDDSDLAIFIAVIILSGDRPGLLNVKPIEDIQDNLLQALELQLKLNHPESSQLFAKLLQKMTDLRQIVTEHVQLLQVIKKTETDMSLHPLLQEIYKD
Experimental: as §1, §2
A variety of example compounds have been made and tested, with a range of in vitro results. […]

[4] = test system: differentiated THP-1 monocytes; settings: cited from earlier work

In the case of CCC(COc1ccc(C(F)(F)F)cc1)CSc1ccc(OC(C)C(=O)O)c(C)c1 (stereo not shown) [Compound 1, 2-{2-Methyl-4-[2-(4-trifluoromethyl-phenoxymethyl)-butylsulfanyl]-phenoxy}-propionic acid], the EC50 [1] is reported as 0.0138 µM and 0.0149 µM and the EC50 [2] is reported as 0.548 µM.

For CCC(COc1ccc(C(F)(F)F)cc1)CSc1ccc(OC(C)(C)C(=O)O)c(C)c1 (stereo not shown) [Compound 2, 2-Methyl-2-{2-methyl-4-[2-(4-trifluoromethyl-phenoxymethyl)-butylsulfanyl]-phenoxy}-propionic acid], the EC50 [1] was 0.0091 µM and 0.0111 µM, the EC50 [3] was 0.278 µM and the EC50 [2] was 0.237 µM.

In the case of Cc1cc(SCc2sc(-c3ccc(C(F)(F)F)cc3)nc2C)ccc1OCC(=O)O [GW501516], the “ABCA1 mRNA expression” value [4] is given as “induced ABCA1 mRNA expression” and the cholesterol efflux [4] is given as “enhanced cholesterol efflux”.

In the case of CCOC(COc1ccc(C(F)(F)F)cc1)CSc1ccc(OC(C)(C)C(=O)O)c(C)c1 (stereo not shown) [Compound 3, 2-{4-[2-Ethoxy-3-(4-trifluoromethyl-phenoxy)-propylsulfanyl]-2-methyl-phenoxy}-2-methyl-propionic acid], the EC50 [1] is reported as 0.034 µM and 0.0275 µM, the EC50 [3] is reported as 0.565 µM and the EC50 [2] is reported as 0.537 µM.
